Experiment: Inhibition of human CXCR3 by chemotaxis assay

C[C@H]1CN(c2ncc(C(=O)NCc3ccc(F)c(F)c3)cc2Cl)CCN1C1CCN(Cc2ccc(Cl)cc2)CC1 [(S)-5-chloro-6-(4-(1-(4-chlorobenzyl)piperidin-4-yl)-3-methylpiperazin-1-yl)-N-(3,4-difluorobenzyl)nicotinamide]
IC50: 23 nM

Source: BindingDB's records for doi:10.1016/j.bmcl.2010.12.114 (Ligand Pharmaceuticals, 2011)
